The TGI is the concentration at which net growth stops. A lower TGI goes with more potent growth arrest.

Molecules are shown by their SMILES.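 Protocol summary: plate cells (96-well), add compound at 5 concentrations, incubate 48 h, interpolate endpoints linearly. At the TGI there is no net growth.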

Results on nine compounds are retold here after PubChem BioAssay (NCI).

Among the test systems are CAKI-1 renal; DU-145 prostate; HS 578T breast; K-562 leukemia; M14 melanoma; MCF7 breast; NCI-H23 lung; NCI-H460 lung; NCI/ADR-RES ovarian; SK-MEL-28 melanoma; SNB-19 CNS; TK-10 renal; SF-539 CNS.
Experiment in all cases: DTP human tumour cell line panel, 48 h

For the compound `COC(=O)/C=C/c1cc(OC)c2oc(-c3ccc(OC)c(OC)c3)c(C(=O)OC)c2c1`, the TGI in the assay with CAKI-1 renal, in the assay on DU-145 prostate, in the assay with HS 578T breast, in the assay with K-562 leukemia, in the assay with M14 melanoma and with MCF7 breast was more than 100 µM each time. The TGI in the assay with NCI-H23 lung, in the assay with NCI-H460 lung, in the assay on NCI/ADR-RES ovarian, with SK-MEL-28 melanoma, in the assay with SNB-19 CNS and with TK-10 renal was more than 100 µM each time.

Regarding `O=C1CCC2(O)C3Cc4ccc(Oc5nnnn5-c5ccccc5)c5c4C2(CCN3CC2CC2)C1O5` (stereo unspecified), the TGI in the assay with CAKI-1 renal is more than 100 µM; in the assay with DU-145 prostate, more than 100 µM; in the assay with HS 578T breast, more than 100 µM; in the assay on K-562 leukemia, more than 100 µM; in the assay on M14 melanoma it was 33.5 µM; with MCF7 breast, more than 100 µM. Moreover, the TGI is more than 100 µM in the assay with NCI-H23 lung; more than 100 µM in the assay with NCI-H460 lung; more than 100 µM with NCI/ADR-RES ovarian; 30.8 µM in the assay with SK-MEL-28 melanoma; more than 100 µM with SNB-19 CNS; more than 100 µM with TK-10 renal.

Consider `C/C=C/[C@H]1O[C@@](O)([C@@H](C)[C@H](O)[C@H](C)[C@H]2OC(=O)/C(OC)=C/C(C)=C/[C@@H](C)[C@@H](O)[C@@H](CC)[C@@H](O)[C@H](C)C/C(C)=C/C=C/[C@@H]2OC)C[C@H](OC2CC(O)C(OC(N)=O)C(C)O2)[C@@H]1C` (stereo partly specified), for which the TGI in the assay with CAKI-1 renal worked out at 14.4 µM; in the assay with DU-145 prostate it was 21.6 µM; with HS 578T breast it was 48 µM; with K-562 leukemia it was 0.772 µM; in the assay on M14 melanoma it was 0.0387 µM; in the assay with MCF7 breast, 16.9 µM. Also, the TGI with NCI-H23 lung amounted to 26.7 µM; with NCI-H460 lung it was 14.4 µM; in the assay on NCI/ADR-RES ovarian it was 26.8 µM; with SK-MEL-28 melanoma it was 20.4 µM; in the assay on SNB-19 CNS, 23.7 µM; in the assay on TK-10 renal, 31.7 µM.

With `COc1cc([C@H]2Oc3c(OC)cc(CCCO)cc3[C@@H]2CO)ccc1O`, the TGI with DU-145 prostate, in the assay on HS 578T breast, in the assay with K-562 leukemia, in the assay on M14 melanoma, in the assay on MCF7 breast and in the assay on NCI-H23 lung was more than 100 µM each time. Also, the TGI in the assay with NCI-H460 lung, with NCI/ADR-RES ovarian, in the assay with SF-539 CNS, in the assay on SK-MEL-28 melanoma, in the assay with SNB-19 CNS and in the assay on TK-10 renal was more than 100 µM throughout.

For `N#CC12C(=O)N3C(=NC(c4ccccc4)NC3c3ccccc3)C1(C#N)C(c1ccccc1)NC1=C2CCCC1` (stereo unspecified), the TGI in the assay on CAKI-1 renal, with DU-145 prostate, in the assay on HS 578T breast, with K-562 leukemia, with M14 melanoma and in the assay with MCF7 breast was more than 100 µM in each case. The TGI with NCI-H23 lung, in the assay with NCI-H460 lung, with NCI/ADR-RES ovarian, in the assay with SK-MEL-28 melanoma, with SNB-19 CNS and in the assay on TK-10 renal was more than 100 µM in each case.

In the case of `O=S1(=O)C(c2ccccc2)=C(O)c2ccccc21`, the TGI in the assay on DU-145 prostate, in the assay with HS 578T breast, in the assay on K-562 leukemia, in the assay on M14 melanoma, in the assay on MCF7 breast and with NCI-H23 lung was more than 100 µM each time. For the same compound, the TGI with NCI-H460 lung, in the assay with NCI/ADR-RES ovarian, in the assay with SF-539 CNS, in the assay with SK-MEL-28 melanoma, in the assay on SNB-19 CNS and in the assay with TK-10 renal was more than 100 µM throughout.

`O=C1c2ccccc2-c2nc(-c3ccccc3)cc3c2c1nc1ccccc13`: the TGI in the assay with CAKI-1 renal was 74.9 µM; in the assay with DU-145 prostate it was 29.6 µM; with HS 578T breast it was 63.9 µM; with K-562 leukemia it was more than 100 µM; in the assay with M14 melanoma, 18.3 µM; in the assay with MCF7 breast, 21.9 µM. Besides, the TGI in the assay on NCI-H23 lung came out at 16.1 µM; with NCI/ADR-RES ovarian, 47.1 µM; in the assay on SK-MEL-28 melanoma, 22.9 µM; with SNB-19 CNS, 52.9 µM; in the assay with TK-10 renal, 42.5 µM.

`N#CC1(c2ccccc2)CCN(C2(c3ccccc3)CCCCC2)CC1`: the TGI in the assay on CAKI-1 renal, in the assay with DU-145 prostate, in the assay on HS 578T breast, with K-562 leukemia, with M14 melanoma and in the assay on MCF7 breast was more than 100 µM each time. For the same compound, the TGI in the assay on NCI-H23 lung, in the assay on NCI/ADR-RES ovarian, in the assay on SK-MEL-28 melanoma, in the assay with SNB-19 CNS and in the assay with TK-10 renal was more than 100 µM throughout.

As for `Cc1c(C#N)c2nnn(-c3ccccc3)c(=O)n2c1-c1ccccc1`, the total growth inhibition concentration (TGI) was more than 100 µM with CAKI-1 renal; 8.45 µM in the assay with DU-145 prostate; more than 100 µM with HS 578T breast; 0.801 µM in the assay on K-562 leukemia; more than 35.6 µM in the assay on M14 melanoma; more than 66.6 µM in the assay on MCF7 breast. For the same compound, the TGI with NCI-H23 lung was more than 77.6 µM; with NCI-H460 lung, more than 76.6 µM; in the assay with NCI/ADR-RES ovarian, 14.6 µM; with SK-MEL-28 melanoma it was more than 100 µM; in the assay with SNB-19 CNS, more than 100 µM; in the assay with TK-10 renal it was more than 100 µM.
